Tests used:
[1] = system: HCE-T cells; experiment: Endocytic transport mechanism in nanoparticle uptake (endocytosis inhibitors, flow cytometry); assay type: cell-based, human; conditions: EIPA 100 μM, Chlorpromazine 30 μM, Nystain 30 μM, p < 0.01
Protocol: The main nanoparticle entry processes involve the clathrin structure, caveolin/lipid raft structure, and macropinocytosis. The experiment was conducted by separately adding different endocytosis transport inhibitors to examine the degree of action during nanoparticle uptake. The clathrin structural inhibitor Chlorpromazine (30 μM), the caveolin/lipid raft structure inhibitor Nystain (30 μM), and the macropinocytosis inhibitor derivative amiloride (EIPA, 100 μM) were added seperately. […] Serum-free cultures of varying endocytotic transport inhibitors were inspected using the method described above (Study of Active Transport Mechanism in Nanoparticle Uptake by HCE-T Cells).

[2] = system: HCE-T cells; conditions: sodium azide 1 mg·mL^−1, 1 h pre-incubation, 4 h uptake, NPs 20 μg·mL^−1, p < 0.01
Protocol: HCE-T cells were seeded at a density of 1 × 10^5 cells·well^−1 in a six-well plate, and the culture medium was discarded when the cell density reached 80%. […] Then, fluorescently labeled nanoparticles were added for a final concentration of 20 μg·mL^−1. After continuing the uptake experiment for 4 h, the fluorescently labeled nanoparticle solution was discarded, washed three times with PBS, and digested using trypsin. The cells were blown out with serum cultures, collected, and centrifuged at 1000 rpm. The supernatant was aspirated to remove the fluorescent material adsorbed on the cell surface. Finally, 0.3 mL of the cells suspended in PBS were transferred into flow tubes and assayed using flow cytometry (BD FACSCanto II, Becton, Dickinson and Company, New York, NY, USA). The fluorescence intensity was quantified by collecting 10,000 cells, and X-means were used for comparing the differences in cell uptake between the groups.

## CCN(c1nc(N)c(C(=O)N=C(N)N)nc1Cl)C(C)C [EIPA, 5-(N-ethyl-N-isopropyl) amiloride]
[1]
  inhibition of HCE-T cell uptake of (2-HP-β-CD)/PLGA NPs: 53.3%

## Nystain
[1]
  inhibition of HCE-T cell uptake of (2-HP-β-CD)/PLGA NPs: 38.3%

## CN(C)CCCN1c2ccccc2Sc2ccc(Cl)cc21 [Chlorpromazine]
[1]; Homo sapiens, read-out: inhibition of HCE-T cell uptake of (2-HP-β-CD)/PLGA NPs
  inhibition at 30 µM: 46.4%

## [N-]=[N+]=[N-].[Na+] [sodium azide]
[2]
  reduction of uptake of (2-HP-β-CD)/PLGA NPs: 60.0%

Source: paper PMC10856407, “Polymer Nanoparticles with 2-HP-β-Cyclodextrin for Enhanced Retention of Uptake into HCE-T Cells” (Molecules, 2024)
